Results from patent US20260365670A1, “EGFR INHIBITORS AND USES THEREOF” (DIZAL (JIANGSU) PHARMACEUTICAL CO., LTD., priority 2022, published 2026).
Like-named read-outs stand apart in the source and are kept apart here. Each block holds one compound with its values, some of them ahead of it.

Columns and labels:
EGFR L858R = target: T1, EGFR L858R (Homo sapiens, UniProt P00533, L858R); assay: Inhibition of EGFR L858R biochemical enzymatic activity (HTRF); conditions: 1 mM ATP
T1 construct: purchased Carna Bio
T1 sequence (P00533 25-1210 L858R): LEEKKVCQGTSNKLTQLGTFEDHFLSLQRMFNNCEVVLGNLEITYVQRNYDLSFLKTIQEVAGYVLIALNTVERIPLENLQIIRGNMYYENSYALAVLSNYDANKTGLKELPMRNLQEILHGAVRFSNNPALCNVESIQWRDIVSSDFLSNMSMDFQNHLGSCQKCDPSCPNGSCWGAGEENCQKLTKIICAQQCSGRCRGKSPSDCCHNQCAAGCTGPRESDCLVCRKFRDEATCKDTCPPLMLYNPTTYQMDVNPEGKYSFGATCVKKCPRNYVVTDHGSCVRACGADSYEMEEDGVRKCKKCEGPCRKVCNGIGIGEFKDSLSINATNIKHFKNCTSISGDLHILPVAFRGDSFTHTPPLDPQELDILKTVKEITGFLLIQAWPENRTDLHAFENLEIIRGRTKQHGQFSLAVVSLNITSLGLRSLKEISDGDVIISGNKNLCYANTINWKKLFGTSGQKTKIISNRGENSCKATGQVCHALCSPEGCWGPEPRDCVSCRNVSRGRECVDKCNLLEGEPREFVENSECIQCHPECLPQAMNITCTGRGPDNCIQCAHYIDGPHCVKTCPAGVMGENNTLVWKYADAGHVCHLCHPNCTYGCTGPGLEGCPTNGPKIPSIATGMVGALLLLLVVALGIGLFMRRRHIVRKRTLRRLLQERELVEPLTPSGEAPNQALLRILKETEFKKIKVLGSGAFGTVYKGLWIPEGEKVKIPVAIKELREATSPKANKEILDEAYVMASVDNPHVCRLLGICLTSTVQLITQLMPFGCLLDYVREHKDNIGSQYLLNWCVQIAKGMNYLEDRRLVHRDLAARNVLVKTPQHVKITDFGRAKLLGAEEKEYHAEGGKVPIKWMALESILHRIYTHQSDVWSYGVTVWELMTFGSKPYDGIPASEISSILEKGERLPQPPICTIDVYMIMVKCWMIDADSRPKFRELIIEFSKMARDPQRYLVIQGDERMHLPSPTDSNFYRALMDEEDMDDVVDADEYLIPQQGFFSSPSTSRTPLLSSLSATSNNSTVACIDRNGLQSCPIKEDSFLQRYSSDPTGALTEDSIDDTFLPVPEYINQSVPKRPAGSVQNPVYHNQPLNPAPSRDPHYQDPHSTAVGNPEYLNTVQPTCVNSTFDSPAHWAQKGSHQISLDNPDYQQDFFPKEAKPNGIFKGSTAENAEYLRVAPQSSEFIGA
Summary of the method: (§1)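 Time-resolved FRET assay of EGFR substrate phosphorylation. Conditions: 1 μM TK substrate-biotin, 1 mM ATP, Mg/Mn buffer, 1 h at RT. IC50 from 4-parameter curve fit.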

EGFR wild type = target: T2, EGFR wild type (Homo sapiens, UniProt P00533); assay: Inhibition of EGFR wild type biochemical enzymatic activity (HTRF); conditions: 1 mM ATP
T2 construct: purchased Carna Bio
T2 sequence (P00533 25-1210): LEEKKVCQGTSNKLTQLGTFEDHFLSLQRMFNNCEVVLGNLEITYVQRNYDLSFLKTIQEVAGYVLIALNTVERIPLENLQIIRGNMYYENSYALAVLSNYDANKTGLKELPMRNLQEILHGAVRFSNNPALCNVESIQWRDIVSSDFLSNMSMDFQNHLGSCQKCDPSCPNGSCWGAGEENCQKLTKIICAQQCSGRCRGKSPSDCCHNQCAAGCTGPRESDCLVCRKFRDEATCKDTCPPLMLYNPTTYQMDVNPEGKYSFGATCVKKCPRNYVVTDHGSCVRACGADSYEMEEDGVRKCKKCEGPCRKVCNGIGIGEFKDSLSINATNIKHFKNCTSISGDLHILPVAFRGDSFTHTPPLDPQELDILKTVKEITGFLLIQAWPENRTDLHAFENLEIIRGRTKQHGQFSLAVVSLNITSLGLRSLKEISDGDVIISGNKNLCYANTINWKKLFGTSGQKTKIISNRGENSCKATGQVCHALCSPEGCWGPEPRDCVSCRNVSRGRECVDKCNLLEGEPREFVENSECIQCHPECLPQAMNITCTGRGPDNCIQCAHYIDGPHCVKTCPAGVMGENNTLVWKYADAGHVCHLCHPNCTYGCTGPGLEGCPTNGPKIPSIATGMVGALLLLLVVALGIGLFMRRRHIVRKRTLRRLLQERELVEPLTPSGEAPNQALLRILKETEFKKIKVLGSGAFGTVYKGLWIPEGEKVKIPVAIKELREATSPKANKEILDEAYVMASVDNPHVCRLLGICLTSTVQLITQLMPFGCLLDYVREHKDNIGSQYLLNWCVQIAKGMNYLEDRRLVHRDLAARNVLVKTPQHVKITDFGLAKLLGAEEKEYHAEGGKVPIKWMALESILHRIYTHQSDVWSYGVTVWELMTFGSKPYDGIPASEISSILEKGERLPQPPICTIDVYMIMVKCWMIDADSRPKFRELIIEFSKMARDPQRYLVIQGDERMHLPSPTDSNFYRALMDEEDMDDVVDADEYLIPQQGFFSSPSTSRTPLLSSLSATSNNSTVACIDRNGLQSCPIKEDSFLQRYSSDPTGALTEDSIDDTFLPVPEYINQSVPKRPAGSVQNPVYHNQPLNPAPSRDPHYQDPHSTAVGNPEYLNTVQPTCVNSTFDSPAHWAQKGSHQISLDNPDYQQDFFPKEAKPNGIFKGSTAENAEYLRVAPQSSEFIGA
Summary of the method: as §1

A-431 = assay: Cell proliferation assay, A-431 cells (GI50, Table 6); format: cell-based; conditions: Homo sapiens, A-431, A-431 cells
EGFR Exon19Del/T790M = target: T3, EGFR Exon19Del/T790M (Homo sapiens, UniProt P00533, DEL746-750/T790M); assay: Inhibition of EGFR Exon19Del/T790M biochemical enzymatic activity (HTRF); conditions: 1 mM ATP
T3 construct: purchased Carna Bio
T3 sequence (P00533 with tags, fused parts or gaps DEL746-750/T790M limits assumed): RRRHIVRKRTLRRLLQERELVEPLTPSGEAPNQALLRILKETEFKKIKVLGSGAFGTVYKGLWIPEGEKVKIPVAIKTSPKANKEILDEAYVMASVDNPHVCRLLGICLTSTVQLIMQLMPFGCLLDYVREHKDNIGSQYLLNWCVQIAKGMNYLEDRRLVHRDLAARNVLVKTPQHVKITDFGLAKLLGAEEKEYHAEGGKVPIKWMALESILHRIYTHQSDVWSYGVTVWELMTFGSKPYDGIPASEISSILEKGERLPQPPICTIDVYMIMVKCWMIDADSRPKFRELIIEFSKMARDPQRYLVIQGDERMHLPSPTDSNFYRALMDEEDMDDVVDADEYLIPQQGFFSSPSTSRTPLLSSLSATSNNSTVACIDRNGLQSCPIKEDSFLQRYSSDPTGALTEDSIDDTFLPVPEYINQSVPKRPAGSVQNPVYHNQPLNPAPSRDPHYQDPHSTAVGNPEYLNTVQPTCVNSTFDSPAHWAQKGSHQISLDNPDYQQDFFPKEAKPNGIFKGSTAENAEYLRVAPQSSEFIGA
Summary of the method: as §1

[1] = target: T4, EGFR[T790M/C797S/d746-750] (Homo sapiens, UniProt P00533, C797S/DEL746-750/T790M); assay: Inhibition of EGFR[T790M/C797S/d746-750] biochemical enzymatic activity (HTRF)
T4 construct: purchased Carna Bio
T4 sequence (P00533 with tags, fused parts or gaps DEL746-750/T790M/C797S limits assumed): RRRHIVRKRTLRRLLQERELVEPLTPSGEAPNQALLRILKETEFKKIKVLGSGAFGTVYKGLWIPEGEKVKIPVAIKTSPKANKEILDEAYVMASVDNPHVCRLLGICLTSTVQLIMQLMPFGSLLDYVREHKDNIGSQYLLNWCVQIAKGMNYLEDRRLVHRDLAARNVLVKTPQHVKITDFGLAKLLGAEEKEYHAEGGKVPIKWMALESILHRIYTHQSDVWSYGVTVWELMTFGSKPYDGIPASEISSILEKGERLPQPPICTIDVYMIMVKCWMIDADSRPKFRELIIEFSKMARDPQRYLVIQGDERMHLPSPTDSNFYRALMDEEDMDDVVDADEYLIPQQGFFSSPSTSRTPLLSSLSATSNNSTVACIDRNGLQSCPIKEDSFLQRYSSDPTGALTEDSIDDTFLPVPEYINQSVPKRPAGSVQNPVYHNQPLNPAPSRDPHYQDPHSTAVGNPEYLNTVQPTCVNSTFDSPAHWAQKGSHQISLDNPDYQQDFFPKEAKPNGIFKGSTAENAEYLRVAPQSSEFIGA
Summary of the method: as §1

EGFR Exon19Del = target: T5, EGFR Exon19Del (Homo sapiens, UniProt P00533, DEL746-750); assay: Inhibition of EGFR Exon19Del biochemical enzymatic activity (HTRF)
T5 construct: purchased Carna Bio
Summary of the method: as §1

EGFR L858R/T790M = target: T6, EGFR L858R/T790M (Homo sapiens, UniProt P00533, L858R/T790M); assay: Inhibition of EGFR L858R/T790M biochemical enzymatic activity (HTRF); conditions: 1 mM ATP
T6 construct: purchased Carna Bio
T6 sequence (P00533 25-1210 T790M/L858R): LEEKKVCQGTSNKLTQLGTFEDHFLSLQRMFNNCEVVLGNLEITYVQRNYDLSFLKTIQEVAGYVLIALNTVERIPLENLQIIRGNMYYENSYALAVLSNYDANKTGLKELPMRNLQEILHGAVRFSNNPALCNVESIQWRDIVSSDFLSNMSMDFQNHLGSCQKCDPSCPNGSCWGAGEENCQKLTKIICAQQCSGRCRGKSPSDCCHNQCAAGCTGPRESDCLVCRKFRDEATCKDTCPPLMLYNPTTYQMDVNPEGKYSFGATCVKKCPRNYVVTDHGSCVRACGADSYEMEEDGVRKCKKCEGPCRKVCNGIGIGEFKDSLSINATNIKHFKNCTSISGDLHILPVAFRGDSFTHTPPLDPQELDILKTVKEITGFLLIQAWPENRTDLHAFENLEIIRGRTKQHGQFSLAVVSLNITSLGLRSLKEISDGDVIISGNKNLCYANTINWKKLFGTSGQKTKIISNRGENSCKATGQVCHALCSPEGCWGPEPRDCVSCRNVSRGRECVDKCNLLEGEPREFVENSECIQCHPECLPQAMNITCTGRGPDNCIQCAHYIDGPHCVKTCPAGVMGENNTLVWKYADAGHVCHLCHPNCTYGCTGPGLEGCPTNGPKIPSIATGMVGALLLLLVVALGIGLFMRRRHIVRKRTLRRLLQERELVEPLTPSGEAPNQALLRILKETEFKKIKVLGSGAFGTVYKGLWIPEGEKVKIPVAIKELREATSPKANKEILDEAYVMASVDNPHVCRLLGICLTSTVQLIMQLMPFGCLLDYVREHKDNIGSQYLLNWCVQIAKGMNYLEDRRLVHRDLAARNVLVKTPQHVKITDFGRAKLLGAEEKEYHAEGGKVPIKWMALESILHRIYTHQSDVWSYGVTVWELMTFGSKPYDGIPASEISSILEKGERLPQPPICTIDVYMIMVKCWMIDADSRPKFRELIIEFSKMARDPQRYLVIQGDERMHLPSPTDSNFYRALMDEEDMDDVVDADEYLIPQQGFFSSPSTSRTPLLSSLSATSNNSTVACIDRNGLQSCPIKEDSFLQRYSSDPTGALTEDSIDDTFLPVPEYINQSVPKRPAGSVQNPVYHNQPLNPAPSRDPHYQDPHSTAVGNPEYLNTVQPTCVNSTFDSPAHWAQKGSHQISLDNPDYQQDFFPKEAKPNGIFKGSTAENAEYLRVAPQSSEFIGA
Summary of the method: as §1

EGFR[T790M/C797S/L858R] = target: T7, EGFR[T790M/C797S/L858R] (Homo sapiens, UniProt P00533, C797S/L858R/T790M); assay: Inhibition of EGFR[T790M/C797S/L858R] biochemical enzymatic activity (HTRF); conditions: 1 mM ATP
T7 construct: purchased Carna Bio
Summary of the method: as §1

[2] = system: Ba/F3 cells expressing EGFR mutations; assay: Cell proliferation assay, Ba/F3 cells expressing EGFR mutations (CellTiter-Glo, 72 hours); format: cell-based
Summary of the method: (§2)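 GI50 is the concentration giving 50% proliferation inhibition. Growth for this was normalised to a baseline viability reading taken when compound was added, and to DMSO wells. PC-9 (500 cells/well) and mutant-EGFR Ba/F3 (5000 cells/well) are treated after overnight seeding in RPMI1640-based medium.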

EGFR (d746-750 C797S) = target: T8, EGFR (d746-750 C797S) (Homo sapiens, UniProt P00533, C797S/DEL746-750); assay: Inhibition of EGFR (d746-750 C797S) biochemical enzymatic activity (HTRF); conditions: 1 mM ATP
T8 construct: purchased signalchem
Summary of the method: as §1

EGFR (C797S L858R) = target: T9, EGFR (C797S L858R) (Homo sapiens, UniProt P00533, C797S/L858R); assay: Inhibition of EGFR (C797S L858R) biochemical enzymatic activity (HTRF); conditions: 1 mM ATP
T9 construct: purchased signalchem
Summary of the method: as §1

PC-9 = assay: Cell proliferation assay, PC-9 cells (CellTiter-Glo, 72 hours); format: cell-based; conditions: PC9 cells, read-out: GI50 PC9
Summary of the method: as §2

[3] = BaF3 cells, EGFR DEL19 - C797S, read-out: GI50 DEL19 - C797S/BaF3
[4] = BaF3 cells, EGFR DEL19 - T790-C797S, read-out: GI50 DEL19 - T790-C797S/BaF3
[5] = BaF3 cells, EGFR L858R - C797S, read-out: GI50 L858R - C797S/BaF3
[6] = BaF3 cells, EGFR L858R - T790-C797S, read-out: GI50 L858R - T790-C797S/BaF3
[7] = BaF3 cells, EGFR L858R - T790M, read-out: GI50 L858R - T790M/BaF3
[8] = BaF3 cells, EGFR L858R, read-out: GI50 L858R/BaF3
[9] = EGFR DEL19 - T790M, read-out: GI50 DEL19 - T790M

IC50 (EGFR L858R; IC50 @L858R, 1 h at room temperature): 15 nM | IC50 (EGFR wild type; IC50 @WT, EGFR wild type, 1 h at room temperature): 100 nM | GI50 (A-431): 333 nM | IC50 (EGFR Exon19Del/T790M; IC50 @Del19-T790M, EGFR Exon19Del/T790M, 1 h at room temperature): 4.7 nM | IC50 ([1]; IC50 @T790M - C797S - Del19, EGFR[T790M/C797S/d746-750], 1 mM ATP, 1 h at room temperature): 2.3 nM | IC50 (EGFR Exon19Del; IC50 @Del19, EGFR Exon19Del, 1 mM ATP, 1 h at room temperature): 4.5 nM | IC50 (EGFR L858R/T790M; IC50 @L858R-T790M, EGFR L858R/T790M, 1 h at room temperature): 3.3 nM | IC50 (EGFR[T790M/C797S/L858R]; IC50 @T790M- C797S - L858R, EGFR[T790M/C797S/L858R], 1 h at room temperature): 2.4 nM | GI50 [2, 3]: 2 nM | GI50 [2, 4]: 2 nM | GI50 [2, 5]: 6 nM | GI50 [2, 6]: 2 nM | GI50 [2, 7]: 2 nM | GI50 [2, 8]: 8 nM | GI50 [2, 9]: 2 nM | IC50 (EGFR (d746-750 C797S); IC50 @Del19-C797S, EGFR (d746-750 C797S), 1 h at room temperature): 2.2 nM | IC50 (EGFR (C797S L858R); IC50 @L858-C797S, EGFR (C797S L858R), 1 h at room temperature): 4.4 nM | GI50 (PC-9): 9 nM
SMILES: Cc1cc2cc(n1)-c1cnn(C)c1OCCN1CC3CCC(C3)(C1)n1c(nc3ccc(N4CCC(N(C)C)CC4)cc31)NC2=O (single isomer, unassigned) [Example B40B, 5-[4-(dimethylamino)piperidin-1-yl]-15,21-dimethyl-23-oxa-2,9,11,16,20,21,26-heptaazaheptacyclo[24.4.1.1^{1,28}.1^{13,17}.0^{2,10}.0^{3,8}.0^{18,22}]tritriaconta-3,5,7,9,13,15,17(33),18(22),19-nonaen-12-one]

IC50 (EGFR L858R; 1 h at room temperature, read-out: IC50 @L858R): 46 nM | IC50 (EGFR wild type; EGFR wild type, 1 h at room temperature, read-out: IC50 @WT): 1020 nM | GI50 (A-431): 1680 nM | IC50 (EGFR Exon19Del/T790M; EGFR Exon19Del/T790M, 1 h at room temperature, read-out: IC50 @Del19-T790M): 2.8 nM | IC50 ([1]; EGFR[T790M/C797S/d746-750], 1 mM ATP, 1 h at room temperature, read-out: IC50 @T790M - C797S - Del19): 1.7 nM | IC50 (EGFR Exon19Del; EGFR Exon19Del, 1 mM ATP, 1 h at room temperature, read-out: IC50 @Del19): 5.3 nM | IC50 (EGFR L858R/T790M; EGFR L858R/T790M, 1 h at room temperature, read-out: IC50 @L858R-T790M): 3.8 nM | IC50 (EGFR[T790M/C797S/L858R]; EGFR[T790M/C797S/L858R], 1 h at room temperature, read-out: IC50 @T790M- C797S - L858R): 1.4 nM | GI50 [2, 3]: 2 nM | GI50 [2, 4]: 2 nM | GI50 [2, 5]: 4 nM | GI50 [2, 6]: 2 nM | GI50 [2, 7]: 2 nM | GI50 [2, 8]: 11 nM | GI50 [2, 9]: 2 nM | IC50 (EGFR (d746-750 C797S); EGFR (d746-750 C797S), 1 h at room temperature, read-out: IC50 @Del19-C797S): 2.4 nM | IC50 (EGFR (C797S L858R); EGFR (C797S L858R), 1 h at room temperature, read-out: IC50 @L858-C797S): 14 nM | GI50 (PC-9): 10 nM
SMILES: Cc1cc2cc(n1)-c1cnn(C)c1OCCN1CC3CCC(C3)(C1)n1c(nc3ccc(N(C)CCCN(C)C)cc31)NC2=O (single isomer, unassigned) [Example B45B]

IC50 (EGFR L858R; 1 h, room temperature, read-out: IC50 (nM) @L858R): 439 nM | IC50 (EGFR wild type; EGFR WT, 1 h, room temperature, read-out: IC50 (nM) @WT): > 5000 nM | GI50 (A-431): 4690 nM | IC50 (EGFR Exon19Del/T790M; EGFR Del19-T790M, 1 h, room temperature, read-out: IC50 (nM) @Del19-T790M): 32 nM | IC50 ([1]; EGFR T790M-C797S-Del19, 1 mM ATP, 1 h, room temperature, read-out: IC50 (nM) @T790M - C797S - Del19): 45 nM | IC50 (EGFR Exon19Del; EGFR Del19, 1 mM ATP, 1 h, room temperature, read-out: IC50 @Del19): 41 nM | IC50 (EGFR L858R/T790M; EGFR L858R-T790M, 1 h, room temperature, read-out: IC50 (nM) @L858R-T790M): 230 nM | IC50 (EGFR[T790M/C797S/L858R]; EGFR T790M-C797S-L858R, 1 h, room temperature, read-out: IC50 (nM) @T790M- C797S - L858R): 900 nM | GI50 ([2]; Mus musculus, BaF3, 72 h, BaF3 cells, EGFR DEL19 - C797S, read-out: GI50 DEL19 - C797S/BaF3): 15 nM | GI50 ([2]; Mus musculus, BaF3, 72 h, BaF3 cells, EGFR DEL19 - T790-C797S, read-out: GI50 DEL19 - T790-C797S/BaF3): 108 nM | GI50 ([2]; Mus musculus, BaF3, 72 h, BaF3 cells, EGFR L858R - C797S, read-out: GI50 L858R - C797S/BaF3): 172 nM | GI50 ([2]; Mus musculus, BaF3, 72 h, BaF3 cells, EGFR L858R - T790-C797S, read-out: GI50 L858R - T790-C797S/BaF3): 230 nM | GI50 ([2]; Mus musculus, BaF3, 72 h, BaF3 cells, EGFR L858R - T790M, read-out: GI50 L858R - T790M/BaF3): 255 nM | GI50 ([2]; Mus musculus, BaF3, 72 h, BaF3 cells, EGFR L858R, read-out: GI50 L858R/BaF3): 121 nM | GI50 ([2]; Mus musculus, BaF3, 72 h, EGFR DEL19 - T790M, read-out: GI50 DEL19 - T790M): 63 nM | IC50 (EGFR (d746-750 C797S); EGFR Del19-C797S, 1 h, room temperature, read-out: IC50 (nM) @Del19-C797S): 1200 nM | IC50 (EGFR (C797S L858R); EGFR L858-C797S, 1 h, room temperature, read-out: IC50 (nM) @L858-C797S): 46 nM | GI50 (PC-9; Homo sapiens, PC-9, 72 h): 147 nM
SMILES: Cn1ncc2c1OCCN1CC3CCC(CC3)(C1)n1c(nc3cc(F)c(N4CCOCC4)cc31)NC(=O)c1cc-2c(=O)n(C)c1 [Example A113, 6-Fluoro-15,21-dimethyl-5-(morpholin-4-yl)-23-oxa-2,9,11,15,20,21,26-heptaazaheptacyclo[26.2.2.1^{1,26}.1^{13,17}.0^{2,10}.0^{3,8}.0^{18,22}]tetratriaconta-3,5,7,9,13,17(34),18(22),19-octaene-12,16-dione]
